According to PubChem BioAssay AID1963847 (Molecular Pharmacology Branch, DTP, NCI, 2024):
Several values for one entry are separate records, joined by “and”; a condition that tells them apart may be missing. Equal entries are not always repeated.

Tested on: 415267-285-R-J2-PDC complex spheroid viability
Assay: Anticancer human tumor 415267-285-R-J2-PDC patient-derived breast carcinoma cell line growth inhibition [POLQ]
Details: for viability, T/C: stronger effect = lower value; active means viability on the fitted dose curve at most 10% of control; inactive means the rest
Experimental: Multicellular complex tumor spheroid response to Polymerase (POL) inhibitors (novobiocin, ART-558, RP6685) in combination with a variety of drugs and investigational agents in selected tumor cell lines
The POL inhibitors (novobiocin, ART-558, and RP6685) were evaluated both individually and in combination with standard of care and investigational anticancer small molecules within a complex spheroid model of solid tumors. . Complex spheroids include a stromal component modeled by human endothelial cells (HUVEC) and fibroblasts modeled by human mesenchymal stem cells (MSCs). The concentration ranges selected for each drug and investigational agent were based upon clinically achievable concentrations if the clinical Cmax of the agent was known.
Compounds. The drugs and investigational agents: novobiocin (NSC847541), ART-558 (NSC835418), RP-6685 (NSC848927), peposertib (NSC802822), ceralasertib (NSC780249), elimusertib (NSC800525), camonsertib (NSC841442), AZD-1390 (NSC803789), olaparib (NSC753686), talazoparib (NSC767125), rucaparib (NSC756644), sotorasib (NSC818433), MRTX-1133 (NSC836407), SN-38 (NSC673596), topotecan (NSC609699), epotoside (NSC141540), doxorubicin (NSC123127), gemcitabine (NSC613327), 5-fluorouracil (NSC19893), paclitaxel (NSC125973), vemurafenib (NSC761431), MSA-2 (NSC828583), SN-011 (NSC837082), adavosertib (NSC754352), prexasertib (NSC758257), carboplatin (NSC241240) and oxaliplatin (NSC266046), were obtained from the National Cancer Institute (NCI) Developmental Therapeutics Program Chemical Repository (21). The FDA-approved anticancer drug set is available from the Developmental Therapeutics Program at https://dtp.cancer.gov/organization/dscb/obtaining/. […] The stock solutions were prepared in dimethyl sulfoxide (DMSO, Sigma-Aldrich, St. Louis, MO, cat. D2650), except for the platinum compounds which were prepared in saline (Quality Biological, Gaithersburg, MD, cat. 114-055-101), at 800-fold the tested concentration and stored at -70 degrees C prior to their use. All drugs and investigational agents were tested over a range starting from a high concentration at or near the clinical Cmax and decreasing in half-log increments. If the clinical Cmax for an agent had not been determined, the highest concentration tested was 10 microM, except for SN-38, which was tested at a high concentration of 1 microM.
Cell Culture. All cells were maintained in an incubator at 37 degrees C and 5% CO2 with 95% humidity. The PDC lines were cultured according to standard operating procedures established by the NCI PDMR (https://pdmr.cancer.gov). Table 3 of the manuscript, lists the cell lines along with the number of the three cell types plated to form the mct-spheroids and media for tumor cell growth. After thawing, all PDC lines, except 997537-175-T-J1-PDC and 415267-285-R-J2-PDC, were cultured in Matrigel-coated flasks prepared with a working solution of 1X Ham's F-12 nutrient mix, without supplementation (Thermo Fisher Scientific, cat. 11765054), 100 U/mL penicillin-streptomycin (Thermo Fisher Scientific, cat. 15140122), and 2.5% Matrigel (Corning Inc., Corning, NY, cat. 354248) for the first three passages. The two PDC lines 997537-175-T-J1-PDC and 415267-285-R-J2-PDC were cultured on uncoated flasks. The 857933-349-R-J2-PDC line was cultured in 6C/Colon 1B media containing advanced DMEM/F-12 (Thermo Fisher Scientific, cat. 12634028), 10 mM HEPES (Thermo Fisher Scientific, cat. 15630080), 1X GlutaMAX supplement (Thermo Fisher Scientific, cat. 35050061), 0.1 mg/mL primocin (InvivoGen, San Diego, CA, cat. ant-pm-2), 10% defined fetal bovine serum, heat inactivated (HyClone Laboratories Inc., Logan, UT, cat. SH30070.03HI), 50% L-WRN conditioned media (ATCC, cat. CRL-3276), 1.25 mM N-Acetyl-L-cysteine (Sigma-Aldrich, cat. A9165), 10 mM nicotinamide (Sigma-Aldrich, cat. N0636), 1X B-27 supplement (Thermo Fisher Scientific, cat. 17504044), 1X N-2 supplement (Thermo Fisher Scientific, cat. […]

[1] = curve of first compound, second compound 0.0316 µM
[2] = curve of first compound, second compound 0.1 µM
[3] = curve of first compound, second compound 0.316 µM
[4] = curve of first compound, second compound 1 µM
[5] = curve of first compound, second compound 3.16 µM
[6] = curve of first compound, second compound 10 µM
[7] = second compound 0.0316 µM, first compound 0.0316 µM
[8] = second compound 0.0316 µM, first compound 0.1 µM
[9] = second compound 0.0316 µM, first compound 0.316 µM
[10] = second compound 0.0316 µM, first compound 1 µM
[11] = second compound 0.0316 µM, first compound 3.16 µM
[12] = second compound 0.0316 µM, first compound 10 µM
[13] = second compound 0.1 µM, first compound 0.0316 µM
[14] = second compound 0.1 µM, first compound 0.1 µM
[15] = second compound 0.1 µM, first compound 0.316 µM
[16] = second compound 0.1 µM, first compound 1 µM
[17] = second compound 0.1 µM, first compound 3.16 µM
[18] = second compound 0.1 µM, first compound 10 µM
[19] = second compound 0.316 µM, first compound 0.0316 µM
[20] = second compound 0.316 µM, first compound 0.1 µM
[21] = second compound 0.316 µM, first compound 0.316 µM
[22] = second compound 0.316 µM, first compound 1 µM
[23] = second compound 0.316 µM, first compound 3.16 µM
[24] = second compound 0.316 µM, first compound 10 µM
[25] = second compound 1 µM, first compound 0.0316 µM
[26] = second compound 1 µM, first compound 0.1 µM
[27] = second compound 1 µM, first compound 0.316 µM
[28] = second compound 1 µM, first compound 1 µM
[29] = second compound 1 µM, first compound 3.16 µM
[30] = second compound 1 µM, first compound 10 µM
[31] = second compound 3.16 µM, first compound 0.0316 µM
[32] = second compound 3.16 µM, first compound 0.1 µM
[33] = second compound 3.16 µM, first compound 0.316 µM
[34] = second compound 3.16 µM, first compound 1 µM
[35] = second compound 3.16 µM, first compound 3.16 µM
[36] = second compound 3.16 µM, first compound 10 µM
[37] = second compound 10 µM, first compound 0.0316 µM
[38] = second compound 10 µM, first compound 0.1 µM
[39] = second compound 10 µM, first compound 0.316 µM
[40] = second compound 10 µM, first compound 1 µM
[41] = second compound 10 µM, first compound 3.16 µM
[42] = second compound 10 µM, first compound 10 µM
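Further: spheroids exposed to compounds for one week before readout.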
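Wherever viability, T/C is given: luminescence used as stand-in measure of viable cells.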

COc1cc2cc(C(=O)CCC(=O)O)sc2cc1OC + Cc1cccc(N(C)C(=O)C2C(O)CCN2c2nc(C)cc(C(F)(F)F)c2C#N)c1
> 10 µM: IC50 [1] | IC50 [2] | IC50 [3] | IC50 [4] | IC50 [5] | IC50 [6]
inactive: viability, T/C [7] 101% | viability, T/C [8] 103% | viability, T/C [9] 101% | viability, T/C [10] 104% | viability, T/C [11] 116% | viability, T/C [12] 99% | viability, T/C [13] 103% | viability, T/C [14] 98.7% | viability, T/C [15] 98.7% | viability, T/C [16] 102% | viability, T/C [17] 100% | viability, T/C [18] 101% | viability, T/C [19] 99.7% | viability, T/C [20] 107% | viability, T/C [21] 101% | viability, T/C [22] 104% | viability, T/C [23] 91.5% | viability, T/C [24] 109% | viability, T/C [25] 111% | viability, T/C [26] 101% | viability, T/C [27] 95.3% | viability, T/C [28] 103% | viability, T/C [29] 100% | viability, T/C [30] 100% | viability, T/C [31] 110% | viability, T/C [32] 112% | viability, T/C [33] 99.1% | viability, T/C [34] 102% | viability, T/C [35] 97.3% | viability, T/C [36] 115% | viability, T/C [37] 98.8% | viability, T/C [38] 112% | viability, T/C [39] 109% | viability, T/C [40] 105% | viability, T/C [41] 103% | viability, T/C [42] 109%

CNCc1ccc(-c2[nH]c3cc(F)cc4c3c2CCNC4=O)cc1 + COC1C(OC(N)=O)C(O)C(Oc2ccc3c(O)c(NC(=O)c4ccc(O)c(CC=C(C)C)c4)c(=O)oc3c2C)OC1(C)C
inactive: viability, T/C [7] 114% | viability, T/C [8] 104% | viability, T/C [9] 99% | viability, T/C [10] 113% | viability, T/C [11] 117% | viability, T/C [12] 113% | viability, T/C [13] 97.7% | viability, T/C [14] 103% | viability, T/C [15] 117% | viability, T/C [16] 107% | viability, T/C [17] 106% | viability, T/C [18] 106% | viability, T/C [19] 95.7% | viability, T/C [20] 109% | viability, T/C [21] 95.3% | viability, T/C [22] 114% | viability, T/C [23] 102% | viability, T/C [24] 98.8% | viability, T/C [25] 115% | viability, T/C [26] 105% | viability, T/C [27] 97.8% | viability, T/C [28] 127% | viability, T/C [29] 102% | viability, T/C [30] 98.7% | viability, T/C [31] 95% | viability, T/C [32] 99.4% | viability, T/C [33] 120% | viability, T/C [34] 116% | viability, T/C [35] 102% | viability, T/C [36] 104% | viability, T/C [37] 104% | viability, T/C [38] 108% | viability, T/C [39] 104% | viability, T/C [40] 106% | viability, T/C [41] 99.9% | viability, T/C [42] 111%
> 10 µM: IC50 [1] | IC50 [2] | IC50 [3] | IC50 [4] | IC50 [5] | IC50 [6]

CCc1cc2c(N3CCc4c(cc(Cn5ccnc5)cc4-c4cn(C)nc4C(F)(F)F)C3=O)ccnc2c(OC)n1
inactive: viability, T/C (compound 0.0316 µM) 82.8% and 92.9% and 84.3% | viability, T/C (compound 0.1 µM) 82.9% and 92.8% and 96.7% | viability, T/C (compound 0.316 µM) 85.8% and 89.2% and 90.2% | viability, T/C (compound 1 µM) 83.7% and 94.3% and 90% | viability, T/C (compound 3.16 µM) 82.2% and 82.6% and 86.5% | viability, T/C (compound 10 µM) 75.7% and 84.4% and 75.4%
> 10 µM: IC50 (curve of compound)

C=CC(=O)N1CCN(c2nc(=O)n(-c3c(C)ccnc3C(C)C)c3nc(-c4c(O)cccc4F)c(F)cc23)C(C)C1 (configuration not stated)
inactive: viability, T/C (compound 0.0316 µM) 88.5% and 95.7% and 91.3% | viability, T/C (compound 0.1 µM) 105% and 106% and 98.2% | viability, T/C (compound 0.316 µM) 97.6% and 105% and 93.3% | viability, T/C (compound 1 µM) 91% and 116% and 101% | viability, T/C (compound 3.16 µM) 98.9% and 108% and 113% | viability, T/C (compound 10 µM) 103% and 107% and 96.3%
> 10 µM: IC50 (curve of compound)

O=C(c1cc(Cc2n[nH]c(=O)c3ccccc23)ccc1F)N1CCN(C(=O)C2CC2)CC1
> 10 µM: IC50 (curve of compound)
inactive: viability, T/C (compound 0.0316 µM) 92.7% and 95.5% and 108% | viability, T/C (compound 0.1 µM) 109% and 91.4% and 105% | viability, T/C (compound 0.316 µM) 86.8% and 95.3% and 97.5% | viability, T/C (compound 1 µM) 87.8% and 94.8% and 102% | viability, T/C (compound 3.16 µM) 95.3% and 95.4% and 109% | viability, T/C (compound 10 µM) 76.9% and 90.6% and 102%

C=CC(=O)N1CCN(c2nc(=O)n(-c3c(C)ccnc3C(C)C)c3nc(-c4c(O)cccc4F)c(F)cc23)C(C)C1 (configuration not stated) + COC1C(OC(N)=O)C(O)C(Oc2ccc3c(O)c(NC(=O)c4ccc(O)c(CC=C(C)C)c4)c(=O)oc3c2C)OC1(C)C
> 10 µM: IC50 [1] | IC50 [2] | IC50 [3] | IC50 [4] | IC50 [5] | IC50 [6]
inactive: viability, T/C [7] 103% | viability, T/C [8] 93.4% | viability, T/C [9] 105% | viability, T/C [10] 92.6% | viability, T/C [11] 112% | viability, T/C [12] 92.2% | viability, T/C [13] 85.4% | viability, T/C [14] 97.5% | viability, T/C [15] 98.5% | viability, T/C [16] 93% | viability, T/C [17] 108% | viability, T/C [18] 103% | viability, T/C [19] 103% | viability, T/C [20] 89.8% | viability, T/C [21] 82.8% | viability, T/C [22] 107% | viability, T/C [23] 112% | viability, T/C [24] 93% | viability, T/C [25] 98.6% | viability, T/C [26] 94.5% | viability, T/C [27] 93.9% | viability, T/C [28] 97% | viability, T/C [29] 97.5% | viability, T/C [30] 98.2% | viability, T/C [31] 101% | viability, T/C [32] 102% | viability, T/C [33] 97.2% | viability, T/C [34] 101% | viability, T/C [35] 101% | viability, T/C [36] 95.9% | viability, T/C [37] 95.1% | viability, T/C [38] 95.8% | viability, T/C [39] 112% | viability, T/C [40] 109% | viability, T/C [41] 90.6% | viability, T/C [42] 86.9%
